Results from ChEMBL document CHEMBL1201862, “PubChem BioAssay data set” (2004).
Calls of active or inactive are those of the source. Unless noted, the rule behind the calls is not given here.

Experiments:
[1] = Luminescence Cell-Based Dose Confirmation HTS to Identify Inhibitors of Platelet Dense Granule Release. [Related pubchem assays: 1663 (Primary HTS), 1678 (Summary of Project)]; type: functional
[2] = inhibitors of SFLLRN-triggered platelet P-selectin exposure, dose response, cell-based, fluorescence, flow cytometry, human platelets (AID 2511); type: functional
[3] = target: Luciferin 4-monooxygenase (Photinus pyralis, UniProt P08659); assay: firefly luciferase enzyme inhibitors, dose response, biochemical, luminescence (AID 1891)
[4] = blockers of SFLLRN-triggered platelet ATP secretion – cell-based, human platelets, luminescence, dry powder, dose response (AID 493100); type: functional
[5] = Luminescence Cell-Based Dose Response Follow up to Identify Inhibitors of Platelet Dense Granule Release. [Related pubchem assays (depositor defined):AID1663, AID1678, AID1889, AID2519]; type: functional
[6] = SFLLRN-induced P-Selectin Platelet Surface Expression Measured in Cell-Based System Using Flow Cytometry - 2016-03_Inhibitor_Dose_DryPowder_Activity_Set3. [Related pubchem assays (depositor defined):AID1678]; type: functional
[7] = cytotoxicity in HEK-293T cells, dose response, cytotoxicity control for TCR NF-kB inhibitor project, luminescence, T-cell screen hits (AID 489026); type: functional, cell-based;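 also: cells exposed to compound about 14 hours before the viability readout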
INS1 = assay: beta cell apoptosis inhibitors, cytokine rescue, dose response, luminescence, retest (AID 449756); type: functional, cell-based; details: Rattus norvegicus;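 also: cell death triggered by IL-1 beta plus TNF-alpha plus IFN-gamma mixture; protective hits raise ATP signal compared with cytokine alone wells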
[8] = target: T1, Heat shock factor protein 1 (Mus musculus, UniProt P38532); assay: HSF1 potentiators in luciferase reporter cells, confirmation, cell-based, NIH3T3, luminescence, dose retest (AID 435004); type: functional;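 also: stress induced by proteasome inhibitor MG132 added 30 min after compound; luciferase reporter driven by HSF1 response element in NIH3T3 cells; actives raise luminescence as potentiators of the MG132 stress response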
T1 sequence (P38532 whole entry): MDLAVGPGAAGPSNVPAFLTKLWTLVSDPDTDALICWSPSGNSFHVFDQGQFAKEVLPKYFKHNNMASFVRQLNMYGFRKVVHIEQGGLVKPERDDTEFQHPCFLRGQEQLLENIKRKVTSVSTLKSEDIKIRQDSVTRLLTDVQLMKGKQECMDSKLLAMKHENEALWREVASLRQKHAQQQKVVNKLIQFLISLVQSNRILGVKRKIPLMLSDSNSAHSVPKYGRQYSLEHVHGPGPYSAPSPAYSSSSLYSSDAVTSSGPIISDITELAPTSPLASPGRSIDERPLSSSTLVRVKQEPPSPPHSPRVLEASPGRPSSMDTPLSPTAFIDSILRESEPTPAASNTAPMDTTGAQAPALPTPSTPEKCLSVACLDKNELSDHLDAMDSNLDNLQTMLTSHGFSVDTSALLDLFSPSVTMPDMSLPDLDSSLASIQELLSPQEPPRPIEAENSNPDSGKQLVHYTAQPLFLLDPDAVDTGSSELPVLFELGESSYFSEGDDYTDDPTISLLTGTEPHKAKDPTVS

[9] = target: Heat shock protein HSP 90-alpha (Homo sapiens, UniProt P07900); type: functional, organism-based
[10] = target: Dual specificity protein phosphatase 3 (Homo sapiens, UniProt P51452); assay: SAR VHR1 Fluorescent Assay for In Vitro dose response studies Set 3. [Related pubchem assays (depositor defined):AID1654, AID1661, AID1878]; type: functional
Prothrombin = Prothrombin (Bos taurus, UniProt P00735); assay: thrombin inhibition, dose response, biochemical, fluorescence polarization, uHTS hits (AID 602369); type: functional
[11] = target: 26S proteasome non-ATPase regulatory subunit 14 (Homo sapiens, UniProt O00487); assay: inhibition of proteasome subunit RPN11 – biochemical, fluorescence polarization, uHTS hits, confirmation (AID 602368); type: functional
[12] = target: 72 kDa type IV collagenase (Homo sapiens, UniProt P08253); assay: Dose Response validation of uHTS RPN11 inhibitor hits using a MMP-2 Fluorescence assay.; type: functional
Cytochrome P450 3A4 = Cytochrome P450 3A4 (Homo sapiens, UniProt P08684);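 also: CYP3A4 tested as one member of a cytochrome P450 panel screen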
[13] = cytotoxicity in HMLE control line with eGFP shRNA, dose response, counter-screen for HMLE_sh_ECad selective toxicity project, cell-based, HMLE_sh_eGFP, luminescence (AID 463074); type: functional, Homo sapiens;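 also: HMLE human mammary epithelial cells expressing control shRNA against eGFP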
[14] = Luminescence Cell-Based Dose Retest to Confirm Inhibitors of Cancer Stem Cells. [Related pubchem assays (depositor defined):AID2717, AID2721]; type: functional; details: Homo sapiens
MDCK [15] = assay: MDCK cell cytotoxicity, dose response, cytotoxicity control (AID 540296); type: functional; details: Canis lupus familiaris
MDCK [16] = assay: antiviral activity against H1N1 influenza, dose response, cell-based, strain KY180 (AID 540254); type: functional; details: Canis lupus familiaris

Chain of Luciferin 4-monooxygenase (P08659 whole entry): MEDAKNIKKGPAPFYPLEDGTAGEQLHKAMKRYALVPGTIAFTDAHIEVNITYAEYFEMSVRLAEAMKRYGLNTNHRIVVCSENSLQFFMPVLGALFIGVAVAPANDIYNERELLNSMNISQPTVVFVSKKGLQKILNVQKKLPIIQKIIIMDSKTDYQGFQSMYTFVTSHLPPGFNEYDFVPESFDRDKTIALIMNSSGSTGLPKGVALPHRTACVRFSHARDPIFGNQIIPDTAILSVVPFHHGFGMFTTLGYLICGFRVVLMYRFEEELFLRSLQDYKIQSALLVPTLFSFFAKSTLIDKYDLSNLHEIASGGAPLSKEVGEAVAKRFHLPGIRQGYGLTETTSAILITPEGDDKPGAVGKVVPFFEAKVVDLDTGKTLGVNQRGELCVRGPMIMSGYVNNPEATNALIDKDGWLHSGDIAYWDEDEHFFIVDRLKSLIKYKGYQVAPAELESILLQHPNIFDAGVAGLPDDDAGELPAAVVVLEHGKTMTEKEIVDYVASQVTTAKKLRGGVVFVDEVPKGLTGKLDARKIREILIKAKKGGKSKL
Chain of 26S proteasome non-ATPase regulatory subunit 14 (O00487 whole entry): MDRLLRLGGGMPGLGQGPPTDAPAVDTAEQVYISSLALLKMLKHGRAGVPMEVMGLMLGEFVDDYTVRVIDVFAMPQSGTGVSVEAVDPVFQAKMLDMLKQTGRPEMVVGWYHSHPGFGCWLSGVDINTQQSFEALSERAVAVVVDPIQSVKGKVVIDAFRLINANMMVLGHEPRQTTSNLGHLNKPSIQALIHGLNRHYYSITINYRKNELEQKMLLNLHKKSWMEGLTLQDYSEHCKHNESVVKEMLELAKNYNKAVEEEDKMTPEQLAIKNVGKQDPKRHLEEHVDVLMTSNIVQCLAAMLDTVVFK
Chain of Dual specificity protein phosphatase 3 (P51452 whole entry): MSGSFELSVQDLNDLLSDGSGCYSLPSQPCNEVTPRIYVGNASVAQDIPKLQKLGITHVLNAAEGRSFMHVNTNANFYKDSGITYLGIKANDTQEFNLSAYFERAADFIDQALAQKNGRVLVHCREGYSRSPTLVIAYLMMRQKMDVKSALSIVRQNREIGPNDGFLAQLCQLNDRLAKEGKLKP
Chain of Cytochrome P450 3A4 (P08684 whole entry): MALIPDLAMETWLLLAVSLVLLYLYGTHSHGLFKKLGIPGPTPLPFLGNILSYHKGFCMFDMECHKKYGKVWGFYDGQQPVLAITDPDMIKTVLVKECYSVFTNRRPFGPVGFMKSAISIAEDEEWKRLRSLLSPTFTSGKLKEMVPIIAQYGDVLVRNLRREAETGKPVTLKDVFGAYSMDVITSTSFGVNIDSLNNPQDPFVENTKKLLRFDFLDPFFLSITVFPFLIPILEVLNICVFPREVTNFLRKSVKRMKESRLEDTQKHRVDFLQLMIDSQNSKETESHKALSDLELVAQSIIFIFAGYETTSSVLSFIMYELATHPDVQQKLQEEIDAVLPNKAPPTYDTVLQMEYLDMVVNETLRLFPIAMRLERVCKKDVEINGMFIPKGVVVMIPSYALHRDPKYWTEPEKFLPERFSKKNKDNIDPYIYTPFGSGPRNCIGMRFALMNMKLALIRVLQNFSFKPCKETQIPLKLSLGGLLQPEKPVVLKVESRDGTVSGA
Chain of 72 kDa type IV collagenase (P08253 whole entry): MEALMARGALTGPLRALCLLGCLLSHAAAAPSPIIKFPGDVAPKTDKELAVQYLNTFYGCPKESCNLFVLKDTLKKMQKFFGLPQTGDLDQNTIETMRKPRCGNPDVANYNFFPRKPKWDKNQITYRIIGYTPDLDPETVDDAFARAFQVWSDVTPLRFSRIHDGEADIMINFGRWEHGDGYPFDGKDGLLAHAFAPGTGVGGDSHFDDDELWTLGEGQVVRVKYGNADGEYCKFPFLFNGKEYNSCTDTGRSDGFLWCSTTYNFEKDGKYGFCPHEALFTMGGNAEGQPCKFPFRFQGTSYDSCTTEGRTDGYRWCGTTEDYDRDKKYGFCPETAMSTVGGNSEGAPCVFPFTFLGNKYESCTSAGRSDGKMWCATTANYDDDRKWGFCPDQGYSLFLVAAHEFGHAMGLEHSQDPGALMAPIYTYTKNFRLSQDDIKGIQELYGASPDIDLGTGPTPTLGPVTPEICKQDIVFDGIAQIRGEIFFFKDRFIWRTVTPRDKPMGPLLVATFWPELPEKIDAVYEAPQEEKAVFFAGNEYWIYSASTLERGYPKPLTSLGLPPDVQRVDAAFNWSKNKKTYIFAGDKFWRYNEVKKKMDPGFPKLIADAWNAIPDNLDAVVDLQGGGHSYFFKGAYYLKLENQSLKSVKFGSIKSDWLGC

CCC(=O)Nc1cccc(NC(=O)c2ccccc2Br)c1
EC50 [1]: 4.32 µM (active) | EC50 [2]: < 1 µM (active) | EC50 [3]: > 112 µM (not active) | AC50 [4]: 21.2 µM (active) | EC50 [5]: 14 µM (active) | AC50 [6]: < 3.12 µM (active)

Cc1cccc(N=Nc2ccc(O)c3ncccc23)c1
IC50 [7]: > 80 µM (inactive) | AC50 (INS1): 1.78 µM (active) | EC50 [8]: 4.58 µM (active) | AC50 [9]: 3.91 µM (active)

Cc1c(NC(=O)c2cc(-n3cnnc3)ccc2Cl)cccc1-c1nc2ccccc2s1
IC50 [10]: 18.3 µM (active)

O=C1c2cccc3cccc(c23)C(=O)N1c1ccc2ncccc2c1
IC50 (Prothrombin): 82.1 µM (active) | IC50 [11]: 23.9 µM (active) | IC50 [12]: 23 µM (active)

O=C(COc1ccccc1Cl)Nc1cc(Cl)ccc1Oc1ccccc1
AC50 (Cytochrome P450 3A4): 15.8 µM (inconclusive) | AC50 [13]: 120 µM (active) | AC50 [14]: 3.01 µM (active)

CC(c1ccccn1)N(CCN(C)C)C(S)=Nc1cccc(F)c1 (centres undefined)
CC50 (MDCK [15]): > 40 µM (active) | IC50 (MDCK [16]): 64.7 µM (active)
